Series [1] deals with T1, Glycogen synthase kinase-3 beta (Homo sapiens, UniProt P49841). As to the kind of experiment: Inhibition of GSK-3beta (unknown origin) using FAM-labeled peptide as substrate preincubated for 10 mins followed by substrate addition by caliper assay.
Target sequence in this assay (P49841 whole entry): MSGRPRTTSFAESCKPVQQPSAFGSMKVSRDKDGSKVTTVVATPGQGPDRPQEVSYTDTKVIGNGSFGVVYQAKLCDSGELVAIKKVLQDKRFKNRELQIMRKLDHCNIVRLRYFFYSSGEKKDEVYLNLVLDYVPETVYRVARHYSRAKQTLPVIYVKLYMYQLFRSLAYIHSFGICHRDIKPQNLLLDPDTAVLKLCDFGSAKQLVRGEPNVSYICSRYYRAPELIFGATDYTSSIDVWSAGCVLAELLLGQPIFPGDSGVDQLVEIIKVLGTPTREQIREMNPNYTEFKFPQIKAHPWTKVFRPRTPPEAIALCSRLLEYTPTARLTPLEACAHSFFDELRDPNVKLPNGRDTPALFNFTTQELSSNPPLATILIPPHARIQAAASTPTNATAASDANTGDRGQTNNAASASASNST
A short description of series [2]: Metal chelating activity assessed as Na+-compound complex formation at 20 uM in the presence of NaCl after 30 mins by UV-vis spectrophotometric analysis.
A short description of series [3]: Metal chelating activity assessed as compound-Al3+ complex formation at 20 uM in the presence of AlCl3 after 30 mins by UV-visible spectrophotometric analysis.
Series [4] concerns the target T1, Glycogen synthase kinase-3 beta. The series can be described thus: Inhibition of GSK-3beta (unknown origin) at 1 uM using FAM-labeled peptide as substrate preincubated for 10 mins followed by substrate addition by caliper assay relative to control.
Target sequence in this assay (P49841 whole entry, looked up): as the sequence (P49841 whole entry) above
Series [5] can be described thus: Metal chelating activity assessed as compound-Mg2+ complex formation at 20 uM in the presence of MgCl2 after 30 mins by UV-visible spectrophotometric analysis.
Series [6] can be described thus: Metal chelating activity assessed as compound-Fe2+ complex formation at 20 uM in the presence of FeSO4 after 30 mins by UV-visible spectrophotometric analysis.
A short description of series [7]: Metal chelating activity assessed as compound-Zn2+ complex formation at 20 uM in presence of ZnCl2 after 30 mins by UV-visible spectrophotometric analysis.
Series [8] is described as follows: Metal chelating activity assessed as K+-compound complex formation at 20 uM in the presence of KCl after 30 mins by UV-vis spectrophotometric analysis.
A short description of series [9]: Metal chelating activity assessed as compound-Cu2+ complex formation by measuring shift in maximum absorption wavelength at 20 uM in presence of CuCl2 after 30 mins by UV-visible spectrophotometric analysis (reference value: 311 nanometer).
Series [10] can be described thus: Metal chelating activity assessed as compound-Ca2+ complex formation at 20 uM in the presence of CaCl2 after 30 mins by UV-visible spectrophotometric analysis.
Series [11] is described as follows: Metal chelating activity assessed as compound-Cu2+ complex formation by measuring shift in maximum absorption wavelength at 20 uM in presence of CuCl2 after 30 mins by UV-visible spectrophotometric analysis (reference value: 326 nanometer).
A short description of series [12]: Inhibition of Cu2+-induced HFIP pretreated human amyloid beta (1 to 42) aggregation at 40 uM measured after 24 hrs by ThT-based fluorescence assay relative to control.
For series [13], the system named is SH-SY5Y. As to the kind of experiment: Neuroprotective activity against Cu2+-mediated amyloid beta (1 to 42) (unknown origin)-induced cytotoxicity in human SH-SY5Y cells assessed as increase in cell viability at 2 uM measured after 24 hrs by MTT assay. Type of series: functional, cell-based. Background: Tetrazolium dyes change colour on reduction, which living cells bring about.

The nature of series [14]: Disaggregation of Cu2+ induced human HFIP-pretreated amyloid beta (1 to 42) preformed fibrils at 40 uM measured after 24 hrs by ThT-based fluorescence assay relative to control.
A short description of series [15]: Antioxidant activity assessed as ABTS radical scavenging activity incubated for 6 mins. Format: functional.
The test system of series [16] is SH-SY5Y. The series can be described thus: Neuroprotective activity against H2O2-induced oxidative damage in human SH-SY5Y cells assessed as cell viability at 10 uM measured after 24 hrs by MTT assay relative to control. Format: functional. Particulars: read-out: Activity.
Series [17] has as its system PC-12. The series can be described thus: Neuroprotective activity against H2O2-induced oxidative damage in rat PC12 cells assessed as cell viability at 10 uM measured after 24 hrs by MTT assay relative to control. Format: functional. The following applies: PC-12, 24 h, read-out: Activity.
The nature of series [18]: Metal chelating activity assessed as compound-Cu2+ complex formation by measuring shift in maximum absorption wavelength at 20 uM in presence of CuCl2 after 30 mins by UV-visible spectrophotometric analysis (reference value: 327 nanometer).
Series [19] in a line: Metal chelating activity assessed as compound-Cu2+ complex formation at 20 uM in presence of CuCl2 after 30 mins by UV-visible spectrophotometric analysis.
The nature of series [20]: Metal chelating activity assessed as inhibition of Cu(II)/ascorbate-induced ROS production by measuring fluorescence intensity at 100 uM measured at 20 secs interval for 1000 secs by fluorescence assay (reference value: 10 to 52).
The target of series [21] is T1, Glycogen synthase kinase-3 beta. As to the kind of experiment: Inhibition of GSK3bbeta in human SH-SY5Y cells assessed as reduction in human amyloid beta (25 to 35) peptide-induced tau hyperphosphorylation at Ser396 residue preincubated for 1 hr followed by amyloid beta-stimulation and measured after 6 hrs by Western blot analysis. Type of series: cell-based. In general terms: In western blotting, separated proteins are transferred to a membrane and probed.
Target sequence in this assay (P49841 whole entry, looked up): as the sequence (P49841 whole entry) above

For series [22], the system named is SH-SY5Y. The series can be described thus: Cytotoxicity against human SH-SY5Y cells measured after 24 hrs by MTT assay. Type of series: cell-based.
Series [23] can be described thus: Potency index, ratio of trolox IC50 to test compound IC50 for ABTS radical scavenging activity. Type of series: functional.
Series [24] deals with Amyloid-beta precursor protein (Homo sapiens) (UniProt P05067). As to the kind of experiment: Inhibition of human HFIP-pretreated amyloid beta (1 to 42) self aggregation at 40 uM after 24 hrs by ThT-based fluorometric method relative to control.
Series [25] concerns the target T1, Glycogen synthase kinase-3 beta. As to the kind of experiment: Inhibition of GSK3bbeta in human SH-SY5Y cells assessed as reduction in human amyloid beta (25 to 35) peptide-induced tau hyperphosphorylation at Ser396 residue at 25 uM preincubated for 1 hr followed by amyloid beta-stimulation and measured after 6 hrs by Western blot analysis relative to control. Format: cell-based.
Target sequence in this assay (P49841 whole entry, looked up): as the sequence (P49841 whole entry) above

The target in series [26] is Amyloid-beta precursor protein (Homo sapiens) (UniProt P05067). The series can be described thus: Disaggregation of HFIP-pretreated human amyloid beta (1 to 42) preformed fibrils at 40 uM after 24 hrs by ThT-based fluorometric method relative to control.
For series [27], the system named is SH-SY5Y. The series can be described thus: Neuroprotective activity against H2O2-induced oxidative damage in human SH-SY5Y cells assessed as increase in cell viability measured after 24 hrs by MTT assay. Format: functional, cell-based.
Series [28] has as its system SH-SY5Y. The series can be described thus: Neuroprotective activity against amyloid beta (1 to 42) (unknown origin)-induced cytotoxicity in SH-SY5Y cells assessed as cell viability at 2 uM measured after 24 hrs by MTT assay (reference value: 78%). Particulars: Homo sapiens. Format: functional.
Series [29] deals with PC-12. As to the kind of experiment: Cytotoxicity against rat PC12 cells measured after 24 hrs by MTT assay. Type of series: cell-based. Particulars: PC-12, 24 h.
Series [30] has as its system SH-SY5Y. The series can be described thus: Cytotoxicity against human SH-SY5Y cells at 2 uM in the presence of CuCl2 measured after 24 hrs by MTT assay. Type of series: cell-based.
Series [31] is described as follows: Metal chelating activity assessed as compound-Cu2+ complex formation by measuring shift in maximum absorption wavelength at 20 uM in presence of CuCl2 after 30 mins by UV-visible spectrophotometric analysis (reference value: 338 nanometer).

The record followed here is ChEMBL document CHEMBL4340509, “Synthesis and evaluation of novel GSK-3β inhibitors as multifunctional agents against Alzheimer's disease” (Eur J Med Chem, 2019).

Active and inactive are the calls of the source. No cut-off for these calls is given here.

Amyloid-beta precursor protein (Homo sapiens), sequence (P05067 whole entry): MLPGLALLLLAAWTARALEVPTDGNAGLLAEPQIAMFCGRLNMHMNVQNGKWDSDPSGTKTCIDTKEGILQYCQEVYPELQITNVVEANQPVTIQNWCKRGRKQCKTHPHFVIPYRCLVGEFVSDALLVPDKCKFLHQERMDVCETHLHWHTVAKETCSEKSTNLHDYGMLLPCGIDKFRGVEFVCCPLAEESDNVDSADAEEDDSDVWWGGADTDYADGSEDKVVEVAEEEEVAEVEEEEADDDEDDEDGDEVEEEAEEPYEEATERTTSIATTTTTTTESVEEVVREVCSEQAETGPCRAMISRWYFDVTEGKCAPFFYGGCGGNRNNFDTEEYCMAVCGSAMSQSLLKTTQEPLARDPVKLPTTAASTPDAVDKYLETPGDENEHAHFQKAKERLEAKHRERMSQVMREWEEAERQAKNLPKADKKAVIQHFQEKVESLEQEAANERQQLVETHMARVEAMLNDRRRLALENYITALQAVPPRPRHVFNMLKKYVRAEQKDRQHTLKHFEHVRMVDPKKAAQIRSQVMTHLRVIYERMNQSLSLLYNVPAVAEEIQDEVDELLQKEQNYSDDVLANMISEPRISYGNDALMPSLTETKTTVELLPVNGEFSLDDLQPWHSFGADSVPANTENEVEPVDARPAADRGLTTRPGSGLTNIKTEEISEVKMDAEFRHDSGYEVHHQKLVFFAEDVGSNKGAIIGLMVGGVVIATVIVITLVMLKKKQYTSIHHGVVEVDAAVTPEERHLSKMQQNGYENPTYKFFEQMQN

In general, IC50 refers to the concentration needed to halve the response being measured. `Nc1nccc(-c2cccc(F)c2)c1/N=C/c1ccnc(NC(=O)C2CC2)c1` gave an IC50 in series [1] of 891 nM.
A word on the inhibition: it is the drop in the measured response relative to a control, in per cent. On to `Nc1ncccc1NCc1ccnc(NC(=O)C2CC2)c1`, for which the outcome in series [2], in series [3], in series [5], in [6], in series [7] and in [8] was inactive. Further, the outcome in series [10] was inactive. For the same compound, in series [4], the inhibition is 33%. The Activity in series [9] was 402 nm.
In the case of `Nc1ncc(-c2ccccc2)cc1NCc1ccnc(NC(=O)C2CC2)c1`, the outcome in series [2], in [3], in series [5], in series [6], in series [7] and in series [8] was inactive. Besides, the result in series [10] was inactive. In series [4], the inhibition was determined as 27%. In addition, the Activity in series [11] worked out at 422 nm.
On to `Oc1c(I)cc(Cl)c2cccnc12`, for which the inhibition in series [12] amounted to 38.8%. Moreover, in series [13], the result was Active. Further, the Activity in series [14] was found to be 34.9%.
Turning to `Cc1c(C)c2c(c(C)c1O)CCC(C)(C(=O)O)O2` (stereo unspecified) [TROLOX], the IC50 in series [15] stood at 14300 nM. Also, the viability at 10 µM is 90% in [16] and 79% in series [17].
For the compound `Cc1ccc(-c2cnc(N)c(NCc3ccnc(NC(=O)C4CC4)c3)c2)cc1`, the outcome in series [2], in series [3], in series [5], in series [6], in series [7] and in [8] was inactive. Besides, in series [10], the outcome was inactive. For the same compound, in series [4], the inhibition amounted to 28%. The Activity in series [18] is 422 nm.
Turning to `Nc1ncccc1NC(=O)c1ccnc(NC(=O)C2CC2)c1`, the outcome in series [3], in [19] and in [7] was inactive. The IC50 in series [1] was determined as 629 nM. Also, the inhibition in [4] was 77%.
For `Nc1ncc(-c2ccncc2)cc1NCc1ccnc(NC(=O)C2CC2)c1`, the result in [2], in series [3], in [5], in series [6], in series [7] and in [8] was inactive. Also, in series [10], the outcome was inactive. Also, the inhibition in [4] turned out to be 27%.
Consider `Cc1ccc(-c2ccnc(N)c2/N=C/c2ccnc(NC(=O)C3CC3)c2)cc1`, for which the IC50 in [1] is 1250 nM.
As for `Nc1ncccc1/N=C/c1ccnc(NC(=O)C2CC2)c1`, the result in series [2], in series [3], in [19], in series [5], in series [6] and in [7] was inactive. The outcome in series [8], in series [26], in [28] and in series [10] was inactive. In addition, the Flu intensity in series [20] lay in the range of 22 to 40. Moreover, the inhibition result was “Dose-dependent effect” in series [21], 24.3% in [12] and less than 50% in series [25]. The IC50 is 3880 nM in series [15], 71 nM in [1], greater than 200000 nM in series [22] and 152000 nM in [29]. Further, the viability at 10 µM in series [16] is 92.1%; in series [17], 72.6%. Also, the Ratio IC50 in series [23] fell in the range of 2 to 4. Further, in series [24], the inhibition result is “inactive”. For the same compound, in series [13], the outcome was Active. Further, the Activity was 42.5% in series [14], “Dose-dependent effect” in [27] and “Non-Toxic” in [30].
Regarding `Cc1ccc(-c2cnc(N)c(/N=C/c3ccnc(NC(=O)C4CC4)c3)c2)cc1`, the IC50 in series [1] is 372 nM.
In the case of `Cc1ccc(-c2cnc(N)c(NC(=O)c3ccnc(NC(=O)C4CC4)c3)c2)cc1`, the result in series [3], in series [19] and in [7] was inactive. The compound further returned an IC50 in series [1] of 127 nM. The inhibition in series [4] came out at 99%.
As to `Cc1csc(-c2cnc(N)c(NC(=O)c3ccnc(NC(=O)C4CC4)c3)c2)c1`, the outcome in series [3], in series [19] and in [7] was inactive. Also, in series [1], 219 nM corresponded to half-maximal inhibition (IC50). In addition, the inhibition in series [4] was 102%.
As for `Nc1ncc(-c2ccc(F)cc2)cc1NC(=O)c1ccnc(NC(=O)C2CC2)c1`, the outcome in series [3], in [19] and in series [7] was inactive. The compound also yielded an IC50 in series [1] of 240 nM. For the same compound, the inhibition in series [4] is 95%.
Regarding `Nc1nccc(-c2ccc(Cl)cc2)c1/N=C/c1ccnc(NC(=O)C2CC2)c1`, in [1], the IC50 was greater than 2000 nM.
Consider `Nc1ncc(-c2ccccc2)cc1NC(=O)c1ccnc(NC(=O)C2CC2)c1`, for which the outcome in series [3], in series [19] and in series [7] was inactive. In addition, the concentration for half-maximal inhibition (IC50) in [1] came to 148 nM. For the same compound, the inhibition in series [4] was determined as 98%.
Regarding `Cc1csc(-c2cnc(N)c(NCc3ccnc(NC(=O)C4CC4)c3)c2)c1`, the result in series [2], in series [3], in series [5], in series [6], in series [7] and in series [8] was inactive. In addition, in [10], the outcome was inactive. Also, the Activity in [31] was 440 nm. Besides, the inhibition in [4] turned out to be 17%.
Turning to `Nc1nccc(-c2ccc(F)cc2)c1/N=C/c1ccnc(NC(=O)C2CC2)c1`, the IC50 in series [1] amounted to 1200 nM.
Same read-out and setting: to `Nc1nccc(-c2ccccc2)c1/N=C/c1ccnc(NC(=O)C2CC2)c1` belongs 633 nM; to `Cc1csc(-c2cnc(N)c(/N=C/c3ccnc(NC(=O)C4CC4)c3)c2)c1`, 315 nM.
Regarding `COc1cc(/C=C/C(=O)CC(=O)/C=C/c2ccc(O)c(OC)c2)ccc1O` [CURCUMIN], the Activity in series [26] stood at 43%. Besides, the viability at 2 µM in [28] (read-out: Activity) is 88%.
Compound `Nc1ncc(-c2ccc(F)cc2)cc1/N=C/c1ccnc(NC(=O)C2CC2)c1` registered an IC50 in series [1] of 418 nM.
On to `Nc1ncc(-c2ccncc2)cc1NC(=O)c1ccnc(NC(=O)C2CC2)c1`, for which the result in [3], in [19] and in series [7] was inactive. Moreover, half-maximal inhibition in series [1] (IC50) was put at 199 nM. Also, the inhibition in series [4] was 99%.
